According to US9365851B2, “Spalt-like transcription factor 4 (SALL4) and uses thereof” (National University of Singapore, priority 2011, dated 2016):

Tests used:
Format in all cases: cell-based, human
SNU-398 cells = assay: Caspase 3/7 assay in SNU-398 cells; conditions: SNU-398 after knockdown
Excerpt: FIGS. 25A-25G: Functional roles of SALL4 in HCC. (25A) qPCR analysis of relative SALL4A and SALL4B expression on SNU-398 cells four days post-transduction. Error bars indicate standard error of three replicates. (25B) Western blot analysis of SALL4 expression on SNU-398 cells four days post-transduction. (25C) MTS analysis of cell viability upon gene knockdown by scrambled control shRNA (Scr) or E5 shRNA targeting SALL4 (E5) on SNU-398 (left) or SNU-387 (right) cells. Error bars indicate standard error of three replicates. (25D) Cell counting assay using trypan blus stain. […] (25F) Effects of SALL4 gene knockdown on tumorigenecity of HuH-7 cells. Representative images of mice transplanted with HuH-7 cells infected with virus expressing scrambled shRNA or E5 shRNA (top).
To further characterize the effects of loss of SALL4 in HCC cells, more functional assays in SNU-398 cells, which express high SALL4, were carried out. […] Furthermore, increased apoptosis in SALL4-knockdown HCC cells was observed by assessing caspase activities. Increased caspase 3/7 activities was observed upon loss of SALL4 in SNU-398 HCC cells (FIG. 30D), as well as increased cleaved caspase 3 (FIG. 30E).

PTEN = PTEN expression upon SALL4 gene knockdown in HCC cells (qPCR, Western blot densitometry); conditions: day 4 post-transduction
Excerpt: FIGS. 26A-26C: PTEN repression as a mechanism of SALL4-induced HCC. (26A) qPCR analysis of PTEN expression upon SALL4 gene knockdown. […] E5 shRNA is a shRNA specifically targets SALL4. (26B) Western blot analysis of PTEN protein expression upon SALL4 gene knockdown using fractionated nuclear (N) and cytoplasmic […] lysates. A total cell lysate (T) was used for protein expression analysis too. SALL4 is exclusively present in cell nuclei (left). Densitometry analysis of total PTEN expression (top right) and cytoplasmic PTEN expression (bottom right).
PTEN expression upon SALL4 gene knockdown was investigated by qPCR and western blot.

SNU-398 = assay: Cellular uptake of FITC-labeled peptide
Description: Cells were grown typically in 6 well plates (35 mm dish) to 50-70% confluence. Usually the transfect ion efficiency is somehow cell type specific. 2 mM peptide was diluted 4 times in PBS (2 ul+6 ul) (For FITC peptidedo not dilute the 2 mM stock). For each transfection reaction tube with 100 ul PBS+1 ul diluted peptide was set up. Chariot reagent was diluted 1:10 in ddH2O and for each transfection a 94 ul H2O tube+6 ul diluted Chariot was prepared (No master mix for more than 4 transfections). The 2 tubes were carefully mixed by pipetting up and down and incubated 30 min. at room temperature. Medium was aspirated from the dish (well) and cells were overlay with the mix. 400 ul serum free medium was added and cells were incubated further for 1 h 37 C (cell incubator). 500 ul complete medium (with 10% serum) was finally added. If cells are not very sensitive to serum starvation (cancer cell lines) 5% serum could be used.
Fluorescent and Confocal microscopy was performed on cells treated with FITC labeled peptides with or without of transfection reagent depending on the cell type. Cells were mounted on cover slips using mounting media with DAPI (Invitrogen) and in some cases cytoskeleton dye (Invitrogen).
In order to evaluate their cellular uptake and localization, the N terminus of these peptides was labeled with fluorescein isothiocyanate (FITC). Despite the net positive charge of these peptides, their uptake by the cells is cell-type specific. Some cell lines such as HL-60 (an AML cell line) allowed the peptide to enter the cells without any modification or carrier, and some cell lines were not penetrable at all. In order to achieve a similar level of peptide delivery in most cell types, a Chariot Transfection Reagent (Active Motif) was used as a peptide carrier, as directed from the manufacturer. All cell types used in the study described herein were subjected to individual evaluation of the percentage of the cells in which the peptide was delivered as well as the duration of time during which they sustained the labeled peptide in the cells. After Chariot treatment, confocal microscopy studies confirmed uptake of these peptides throughout the cell, including nuclei (as evidenced by DAPI overlay, FIG. 1B).
Next tested was the cellular uptake and localization of these peptides in various types of cells using FITC-labeled wild type or scrambled peptides. Despite the net positive charge of these peptides, their penetration into cells is cell type-specific. Some cell lines, such as HL-60 (an AML cell line), allowed peptide entry without any modification or facilitator, while others such as SNU-398 were not penetrable at all. […] The overall success rate of peptide uptake by the cells was above 95% with Pep-1, as evaluated by flow cytometry (FIG. 9A). […]

| peptide uptake (cells with peptide) (SNU-398; SNU-398, no carrier) [%] | peptide uptake (cells with peptide) (SNU-398; SNU-398, with Chariot) [%] | cells showing FITC-labeled peptide uptake (SNU-398; SNU-398, with Pep-1 carrier, flow cytometry) | Substance | caspase 3/7 activity (apoptosis) (SNU-398 cells) | increase of PTEN mRNA (PTEN) [%] |
| --- | --- | --- | --- | --- | --- |
| – | – | – | CTATTTAGCCAAAGGCAAA (short hairpin RNA, chemistry and delivery not given here, further chemistry not given here) [E5 shRNA] | increase in apoptosis activity | 16.5 |
| 0 | 40 | Over 90% | H-MSRRKQAKPQHI-OH [wt peptide, MSRRKQAKPQHI] | – | – |
